From US12447152B2, “Pharmaceutical combination of PRMT5 inhibitors” (Lupin Limited, priority 2019, dated 2025)

Legend:
[1] = tested on: MIA PaCa-2 human pancreatic cancer xenograft; assay: In vivo efficacy study of Compound-24 with Afatinib, MIA PaCa-2 xenograft; parameters: species or system nude mice
Description: Compound-24 (1 mg/kg; b.i.d.), Afatinib (12.5 mg/kg; q.d.) and Compound-24+Afatinib (Compound-24; 1 mg/kg; b.i.d+Afatinib; 12.5 mg/kg; q.d.).

[2] = tested on: MIA PaCa-2 human pancreatic cancer xenograft; assay: In vivo efficacy study of Compound-24 with Ulixertinib (BVD-523), MIA PaCa-2 xenograft (tumor fragments); parameters: species or system nude mice; conditions: Compound-24 alone, 1 mg/kg b.i.d.
Description: MIA PaCa-2 tumor fragments were implanted subcutaneously in nude mice. […] Compound-24 (1 mg/kg; b.i.d.), BVD-523 (25 mg/kg; b.i.d.) and Compound-24+BVD-523 (Compound-24; 1 mg/kg; b.i.d+BVD-523; 25 mg/kg; b.i.d.).

[3] = tested on: MIA PaCa-2 human pancreatic cancer xenograft; assay: In vivo efficacy study of Compound-24 with BI-3406, MIA PaCa-2 xenograft; conditions: Compound-24 alone, 1 mg/kg; day 15
Description: The tumor-bearing mice were randomized once the tumors reached an average volume of approximately 155-159 mm^3 (Tumor volume range 107-248 mm^3).

Row | Compound | % tumor growth inhibition ([1]; Afatinib alone, 12.5 mg/kg q.d.) | % tumor growth inhibition [2] | % tumor growth inhibition [3] | % tumor growth inhibition ([1]; Compound-24 alone, 1 mg/kg b.i.d.)
1 | CN(C)C/C=C/C(=O)Nc1cc2c(Nc3ccc(F)c(Cl)c3)ncnc2cc1O[C@H]1CCOC1 [Afatinib, (E)-N-(4-(3-chloro-4-fluoroanilino)-7-[(3S)-oxolan-3-yl)oxoquinazolin-6-yl)-4-(dimethylamino)but-2-enamide, reference compound] | 58.68±5.14% |  |  | 
2 | Nc1nc2cc(CCC3=C[C@@H](n4ccc5c(N)ncnc54)[C@H](O)[C@@H]3O)cc(F)c2cc1Cl [Compound-24, (1S,2R,5R)-3-(2-(2-Amino-3-chloro-5-fluoroquinolin-7-yl)ethyl)-5-(4-amino-7H-pyrrolo[2,3-d]pyrimidin-7-yl)cyclopent-3-ene-1,2-diol] |  | 58.83±9.92% | 47.88±12.12% | 48.03±5.75%
